Laboratory results from patent US20040133938A1, “Use of lipoic acid in plant culture media” (priority 2002, published 2004).

Test system: potato stem explants, cultivar Ranger Russet
Experiment: Potato Agrobacterium transformation with glyphosate selection
Assay type: cell-based
Settings: for #rooted / shoots: 400 explants; for % TE (transformation efficiency) / % escape: potato
Procedure: This Example describes the use of lipoic acid in an Agrobacterium-based potato transformation protocol. Five days prior to inoculation, Agrobacterium containing the transformation vector of interest were streaked on a fresh LBssck plate (see media descriptions in Example 1) from the frozen glycerol stock, grown at about 28° C. for 3-4 days and stored in the refrigerator. About 20-22 hours before inoculation, 50 mL of liquid LBssck media (see media descriptions in Example 1) were dispensed into a 250-mL sterile flask. Using a sterile bacteriological loop, one loopful of bacteria from the LBssck plate was inoculated and agitated in the liquid LBssck. The 250-mL flasks were shaken at 25° C. overnight at medium to high speed. On inoculation day, 45 mL of MSO (4.4 g/L MS salts, 2 mL/L, Gamborg's B5 salts, 30 g/L sucrose) were dispensed into a 250 mL sterile flask. Using a sterile 5 mL pipette, 5 mL of the suspension was removed and dispensed into the flask containing the 45 mL of MSO and then agitated. The desired O.D. used for Agrobacterium transformation in potato was O.D.660=0.1.
The stock plant material to be used was collected from the growth chamber (16-hour light, 20° C.). The meristem was excised from the stock plants, and the cut end was placed in fresh PM (see media descriptions below) media, with ten meristems per plantcon. The leaves were removed from the potato stems by either cutting with a scalpel or pinching them off with forceps. After removing all the leaves in the plantcon, the stems were excised near the base and placed in an empty, sterile plantcon containing MSO. During this process, the plantcon(s) containing stems were kept closed except when adding more stems.
On the day of the inoculation, the stems were cut into 7 mm sections using a sterile scalpel and forceps. A 1/10 Agrobacterium solution was prepared by pipetting 4 mL of the Agrobacterium culture into 36 mL of MSO. The 1/10 agro solution was poured into the respective plates and swirled gently. A small amount of MSO was dispensed into the regeneration tissue and swirled. It was incubated for 15 min.
After 15 minutes, the Agrobacterium solution was removed with a vacuum aspirator. Using a sterile scoopula, the explants were scooped and spread onto the coculture plates with a piece of sterile 8.5 cm Whatman filter paper placed in the middle, about 100 explants per plate. The plates were placed in a bag and stored in a warm room ( 16/8 hour light, 19° C.) for two days.
After the two-day co-culture period, explants were placed on the appropriate selection media corresponding to the selectable marker provided in the transformation vector.
The explants were placed on the Z1 nonselection media at 20 explants per plate. The plates were placed in a bag and stored in a warm room (16-hour light, 19° C.). The glyphosate constructs were transferred to selection medium in 3 days.
In three days, the explants were transferred to Z1 glyphosate selection media at 20 explants per plate. The plates are bagged and placed in the warm room for one week.
After one week, the explants that were on Z1 glyphosate media were transferred to Z2 glyphosate media at 20 explants per plate. The plates were bagged and placed back in the warm room for 4 weeks. They remained on-this selection media for four weeks.
After two weeks, the experiment was checked for any shoots at this point. Shoots that were originating directly from the callusing end of the explant were excised. The shoots were placed on rooting media containing either kanamycin or glyphosate depending upon the selection used in the experiment and placed in the growth chamber. These were checked for rooting in two weeks. Any that were rooting were cut into tubes. This process was repeated after 2 more weeks. Any non-rooting plants were discarded after 4 weeks.
The lipoic acid study was conducted using the glyphosate transformation protocol as outlined above. […]

[1] = 8 μM lipoic acid, listed as Lipoic acid
[2] = 9 μM lipoic acid, listed as Lipoic acid

O=C(O)CCCCC1CCSS1 (stereo not shown) [lipoic acid, 1,2-dithiolane-3-pentanoic acid]
#rooted (6 μM lipoic acid): 18 | shoots (6 μM lipoic acid): 27 | % TE (transformation efficiency) (6 μM lipoic acid): 4.5% | % escape (6 μM lipoic acid): 33.0% | #rooted (7 μM lipoic acid): 16 | shoots (7 μM lipoic acid): 25 | % TE (transformation efficiency) (7 μM lipoic acid): 4.0% | % escape (7 μM lipoic acid): 36.0% | #rooted (8 μM lipoic acid): 75 | shoots (8 μM lipoic acid): 89 | % TE (transformation efficiency) (8 μM lipoic acid): 19.0% | % escape (8 μM lipoic acid): 16.0% | % TE (transformation efficiency) [1]: 19% | % escape [1]: 16% | #rooted (9 μM lipoic acid): 70 | shoots (9 μM lipoic acid): 89 | % TE (transformation efficiency) (9 μM lipoic acid): 18.0% | % escape (9 μM lipoic acid): 21.0% | % TE (transformation efficiency) [2]: 18% | % escape [2]: 21% | increase in transformation efficiency (lipoic acid at 8 μM and 9 μM vs control): sixfold increase | effect on transformation efficiency and escapes (lipoic acid at 6 and 7 μM): little effect
